In general, EC50 refers to the concentration that produces a half-maximal response.

Experiment [1] concerns Respiratory syncytial virus recombinant with luciferase (RSV-Luc5) in NHBE cells. Put plainly: NHBE RSV-Luc5 384-well assay (EC50 RSVFLUC NHBE-384, Example U). Format: cell-based. Particulars: human respiratory syncytial virus, 72 h, read-out: RSV FLuc NHBE 384 EC50 (v2) (nM) (per Ex. U). The method, boiled down: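 Passage-2 NHBE cells (5,000/well) on pre-spotted compounds, 10-point 1:3 series, infected with RSV-Luc5 at MOI 1 and incubated 3 days at 37° C. Replication read by One-Glo luminescence, normalized to remdesivir (0%) and DMSO (100%); EC50 = concentration reducing replication by 50%, by non-linear regression.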

The subject of experiment [2] is Respiratory syncytial virus recombinant with luciferase (RSV-Luc5) in HEp-2 cells. The experiment in a line: HEp-2 RSV-Luc5 384-well assay (EC50 RSVFLUC Hep2-384 v2, Example V). Format: cell-based. Particulars: human respiratory syncytial virus, HEp-2, 72 h, read-out: RSV Hep-2 FLuc EC50 (v2) (nM) (per Ex. V). The method in brief: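 HEp-2 cells (4,000/well) infected with RSV-Luc5 at MOI 0.5 in DMEM/10% FBS with compound, 10-point 1:3 dilutions, 3 days at 37 °C. Replication read by One-Glo luminescence, normalized to remdesivir (0%) and DMSO (100%). EC50 from non-linear regression as concentration giving 50% reduction.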

`CCCCCCCCCCCCCCCCCCOC[C@H](COP(=O)(O)OC[C@@]1(C#N)O[C@@H](c2ccc3c(N)ncnn23)[C@H](O)[C@@H]1O)OCc1cccc(C#N)n1` [Compound 68, ((2R,3S,4R)-5-(4-aminopyrrolo[2,1-f][1,2,4]triazin-7-yl)-2-cyano-3,4-dihydroxytetrahydrofuran-2-yl)methyl ((R)-2-((6-cyanopyridin-2-yl)methoxy)-3-(octadecyloxy)propyl) hydrogen phosphate]: the EC50 was found to be 9 nM in experiment [1] and 110 nM in experiment [2].
Take `CCCCCCCCCCCCCCOC[C@H](COP(=O)(O)OC[C@@]1(C#N)O[C@@H](c2ccc3c(N)ncnn23)[C@H](O)[C@@H]1O)Oc1cc(C#N)ccn1` [Compound 69, ((2R,3S,4R)-5-(4-aminopyrrolo[2,1-f][1,2,4]triazin-7-yl)-2-cyano-3,4-dihydroxytetrahydrofuran-2-yl)methyl ((R)-2-((4-cyanopyridin-2-yl)oxy)-3-(tetradecyloxy)propyl) hydrogen phosphate]: the EC50 is 32 nM in experiment [1] and 674 nM in experiment [2].
For `CCCCCCCCCCCCCCCCCCCC[C@@H](COP(=O)(O)OC[C@@]1(C#N)O[C@@H](c2ccc3c(N)ncnn23)[C@H](O)[C@@H]1O)OCc1cc(F)cc(C#N)c1` [Compound 70, ((2R,3S,4R)-5-(4-aminopyrrolo[2,1-f][1,2,4]triazin-7-yl)-2-cyano-3,4-dihydroxytetrahydrofuran-2-yl)methyl ((S)-2-((3-cyano-5-fluorobenzyl)oxy)docosyl) hydrogen phosphate], the EC50 stood at 165 nM in experiment [1] and 1770 nM in experiment [2].
As to `CCCCCCCCCCCCCCCCCCOC[C@@H](COP(=O)(O)OC[C@@]1(C#N)O[C@@H](c2ccc3c(N)ncnn23)[C@H](O)[C@@H]1O)Oc1ccc(C#N)nc1` [Compound 72, ((2R,3S,4R,5S)-5-(4-aminopyrrolo[2,1-f][1,2,4]triazin-7-yl)-2-cyano-3,4-dihydroxytetrahydrofuran-2-yl)methyl ((S)-2-((6-cyanopyridin-3-yl)oxy)-3-(octadecyloxy)propyl) hydrogen phosphate], the EC50 in experiment [1] turned out to be 4 nM; in experiment [2] it was 45 nM.
With `CCCCCCCCCCCCCCCCCCOC[C@H](COP(=O)(O)OC[C@@]1(C#N)O[C@@H](c2ccc3c(N)ncnn23)[C@H](O)[C@@H]1O)OCc1ccc(C#N)cc1OC` [Compound 73, ((2R,3S,4R)-5-(4-aminopyrrolo[2,1-f][1,2,4]triazin-7-yl)-2-cyano-3,4-dihydroxytetrahydrofuran-2-yl)methyl ((R)-2-((4-cyano-2-methoxybenzyl)oxy)-3-(octadecyloxy)propyl) hydrogen phosphate], the EC50 was found to be 10 nM in experiment [1] and 104 nM in experiment [2].
Regarding `CCCCCCCCCCCCCCCCC[C@@H](COP(=O)(O)OC[C@@]1(C#N)O[C@@H](c2ccc3c(N)ncnn23)[C@H](O)[C@@H]1O)OCc1cc(F)cc(C#N)c1` [Compound 74, ((2R,3S,4R)-5-(4-aminopyrrolo[2,1-f][1,2,4]triazin-7-yl)-2-cyano-3,4-dihydroxytetrahydrofuran-2-yl)methyl ((S)-2-((3-cyano-5-fluorobenzyl)oxy)nonadecyl) hydrogen phosphate], the EC50 in experiment [1] worked out at 85 nM; in experiment [2], 782 nM.
`CCCCCCCCCCCCCCOC[C@H](COP(=O)(O)OC[C@@]1(C#N)O[C@@H](c2ccc3c(N)ncnn23)[C@H](O)[C@@H]1O)OCc1ccc(C#N)cc1F` [Compound 75, ((2R,3S,4R,5S)-5-(4-aminopyrrolo[2,1-f][1,2,4]triazin-7-yl)-2-cyano-3,4-dihydroxytetrahydrofuran-2-yl)methyl ((R)-2-((4-cyano-2-fluorobenzyl)oxy)-3-(tetradecyloxy)propyl) hydrogen phosphate]: the results for the EC50 in experiment [1] and in experiment [2] were 12 nM and 446 nM, respectively.
Consider `CCCCCCCCCCCCCCCCC[C@H](COP(=O)(O)OC[C@@]1(C#N)O[C@@H](c2ccc3c(N)ncnn23)[C@H](O)[C@@H]1O)OCc1cc(Cl)cc(C#N)c1` [Compound 76, ((2R,3S,4R)-5-(4-aminopyrrolo[2,1-f][1,2,4]triazin-7-yl)-2-cyano-3,4-dihydroxytetrahydrofuran-2-yl)methyl ((R)-2-((3-chloro-5-cyanobenzyl)oxy)nonadecyl) hydrogen phosphate], for which the results for the EC50 in experiment [1] and in experiment [2] were 113 nM and 382 nM, respectively.
Take `CCCCCCCCCCCCCCCC[C@H](COP(=O)(O)OC[C@@]1(C#N)O[C@@H](c2ccc3c(N)ncnn23)[C@H](O)[C@@H]1O)OCc1cc(F)cc(C#N)c1` [Compound 78, ((2R,3S,4R,5S)-5-(4-aminopyrrolo[2,1-f][1,2,4]triazin-7-yl)-2-cyano-3,4-dihydroxytetrahydrofuran-2-yl)methyl ((R)-2-((3-cyano-5-fluorobenzyl)oxy)octadecyl) hydrogen phosphate]: the half-maximal effective concentration (EC50) in experiment [1] was found to be 31 nM; in experiment [2], 439 nM.
Taken in the same sequence, the figures for `CCCCCCCCCCCCCCCC[C@@H](COP(=O)(O)OC[C@@]1(C#N)O[C@@H](c2ccc3c(N)ncnn23)[C@H](O)[C@@H]1O)OCc1cc(F)cc(C#N)c1` [Compound 79, ((2R,3S,4R,5S)-5-(4-aminopyrrolo[2,1-f][1,2,4]triazin-7-yl)-2-cyano-3,4-dihydroxytetrahydrofuran-2-yl)methyl ((S)-2-((3-cyano-5-fluorobenzyl)oxy)octadecyl) hydrogen phosphate] were 19 nM and 1090 nM.
Taken in the same sequence, the figures for `CCCCCCCCCCCCCCC[C@H](COP(=O)(O)OC[C@@]1(C#N)O[C@@H](c2ccc3c(N)ncnn23)[C@H](O)[C@@H]1O)OCc1cc(F)cc(C#N)c1` [Compound 80, ((2R,3S,4R,5S)-5-(4-aminopyrrolo[2,1-f][1,2,4]triazin-7-yl)-2-cyano-3,4-dihydroxytetrahydrofuran-2-yl)methyl ((R)-2-((3-cyano-5-fluorobenzyl)oxy)heptadecyl) hydrogen phosphate] were 36 nM and 1050 nM.
Taken in the same sequence, the figures for `CCCCCCCCCCCCCCCCCC[C@H](COP(=O)(O)OC[C@@]1(C#N)O[C@@H](c2ccc3c(N)ncnn23)[C@H](O)[C@@H]1O)OCc1cc(Cl)cc(C#N)c1` [Compound 81, ((2R,3S,4R,5S)-5-(4-aminopyrrolo[2,1-f][1,2,4]triazin-7-yl)-2-cyano-3,4-dihydroxytetrahydrofuran-2-yl)methyl ((R)-2-((3-chloro-5-cyanobenzyl)oxy)icosyl) hydrogen phosphate] were 83 nM and 445 nM.
For the compound `CCCCCCCCCCCCCCCCCCC[C@H](COP(=O)(O)OC[C@@]1(C#N)O[C@@H](c2ccc3c(N)ncnn23)[C@H](O)[C@@H]1O)OCc1cc(Cl)cc(C#N)c1` [Compound 82, ((2R,3S,4R,5S)-5-(4-aminopyrrolo[2,1-f][1,2,4]triazin-7-yl)-2-cyano-3,4-dihydroxytetrahydrofuran-2-yl)methyl ((R)-2-((3-chloro-5-cyanobenzyl)oxy)henicosyl) hydrogen phosphate], the figures for the 50% effective concentration (EC50) in experiment [1] and in experiment [2] were 147 nM and 1250 nM, respectively.
Turning to `CCCCCCCCCCCCCCCCCC[C@H](COP(=O)(O)OC[C@@]1(C#N)O[C@@H](c2ccc3c(N)ncnn23)[C@H](O)[C@@H]1O)OCc1cc(F)cc(C#N)c1` [Compound 84, ((2R,3S,4R,5S)-5-(4-aminopyrrolo[2,1-f][1,2,4]triazin-7-yl)-2-cyano-3,4-dihydroxytetrahydrofuran-2-yl)methyl ((R)-2-((3-cyano-5-fluorobenzyl)oxy)icosyl) hydrogen phosphate], the half-maximal effective concentration (EC50) in experiment [1] came to 9 nM; in experiment [2], 325 nM.
In the case of `CCCCCCCCCCCCCCCCOC[C@@H](COP(=O)(O)OC[C@@]1(C#N)O[C@@H](c2ccc3c(N)ncnn23)[C@H](O)[C@@H]1O)OCc1cc(F)cc(C#N)c1` [Compound 88, ((2R,3S,4R,5S)-5-(4-aminopyrrolo[2,1-f][1,2,4]triazin-7-yl)-2-cyano-3,4-dihydroxytetrahydrofuran-2-yl)methyl ((S)-2-((3-cyano-5-fluorobenzyl)oxy)-3-(hexadecyloxy)propyl) hydrogen phosphate], the concentration giving a half-maximal response (EC50) in experiment [1] is 38 nM; in experiment [2], 191 nM.

For the origin of these results see patent publication US20250034182A1, “PHOSPHOLIPID COMPOUNDS AND METHODS OF MAKING AND USING THE SAME” (priority 2021, published 2025).
